# Laboratory results: patent publication US12077503B2, “Substituted cyclic amides and their use as herbicides” (FMC CORPORATION, priority 2015, dated 2024)
# Experiments:
# Format in all cases: in vivo
# [1] = system: ivy-leaved morning glory (Ipomoea hederacea); experiment: Test G Post-Emergence Protocol; conditions: Ipomoea, post-emergence, 312 h; for pest or weed control at 15.625 g/ha: 15.625 g ai/ha, evaluated after 13 days (100=total damage to plant; 0=no damage to plant), read-out: Morningglory, Ivy-leaved damage rating; for pest or weed control at 62.5 g/ha: 62.5 g ai/ha, read-out: Morningglory, Ivy-leaved damage rating (100=total damage to plant; 0=no damage to plant); for pest or weed control at 62.5 g/ha / pest or weed control at 250 g/ha: evaluated after 13 days; for pest or weed control at 250 g/ha: 250 g ai/ha, read-out: damage to plant, Morningglory, Ivy-leaved (100=total damage to plant; 0=no damage to plant)
# In short: (§1)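 Foliar application was made 8 days after sowing, using an aqueous spray of the active in acetone/water (50:50) with 0.5% Tween 20, at doses of 15.625, 62.5 or 250 g/ha. Injury was assessed 13 days later, where 100 meant the plant was fully damaged.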
# [2] = system: giant foxtail (Setaria faberi); experiment: Test G Post-Emergence Protocol; conditions: Setaria faberi, post-emergence, 312 h; for pest or weed control at 15.625 g/ha: 15.625 g ai/ha, evaluated after 13 days (100=total damage to plant; 0=no damage to plant), read-out: Foxtail, Giant damage rating; for pest or weed control at 62.5 g/ha: 62.5 g ai/ha, read-out: Foxtail, Giant damage rating (100=total damage to plant; 0=no damage to plant); for pest or weed control at 62.5 g/ha / pest or weed control at 250 g/ha: evaluated after 13 days; for pest or weed control at 250 g/ha: 250 g ai/ha, read-out: damage to plant, Foxtail, Giant (100=total damage to plant; 0=no damage to plant)
# In short: as §1
# [3] = system: velvetleaf (Abutilon theophrasti); experiment: Test G Post-Emergence Protocol; conditions: Abutilon theophrasti, post-emergence, 312 h; for pest or weed control at 15.625 g/ha: 15.625 g ai/ha, evaluated after 13 days (100=total damage to plant; 0=no damage to plant), read-out: Velvetleaf damage rating; for pest or weed control at 62.5 g/ha: 62.5 g ai/ha, read-out: Velvetleaf damage rating (100=total damage to plant; 0=no damage to plant); for pest or weed control at 62.5 g/ha / pest or weed control at 250 g/ha: evaluated after 13 days; for pest or weed control at 250 g/ha: 250 g ai/ha, read-out: damage to plant, Velvetleaf (100=total damage to plant; 0=no damage to plant)
# In short: as §1
# [4] = system: barnyardgrass (Echinochloa crus-galli); experiment: Test G Post-Emergence Protocol; conditions: Echinochloa crus-galli, post-emergence, 312 h; for pest or weed control at 15.625 g/ha: 15.625 g ai/ha, evaluated after 13 days (100=total damage to plant; 0=no damage to plant), read-out: Barnyardgrass damage rating; for pest or weed control at 62.5 g/ha: 62.5 g ai/ha, read-out: Barnyardgrass damage rating (100=total damage to plant; 0=no damage to plant); for pest or weed control at 62.5 g/ha / pest or weed control at 250 g/ha: evaluated after 13 days; for pest or weed control at 250 g/ha: 250 g ai/ha, read-out: damage to plant, Barnyardgrass (100=total damage to plant; 0=no damage to plant)
# In short: as §1
# [5] = system: corn (Zea mays); experiment: Test G Post-Emergence Protocol; conditions: Zea mays, post-emergence, 312 h; for plant injury at 15.625 g/ha: 15.625 g ai/ha, evaluated after 13 days (100=total damage to plant; 0=no damage to plant), read-out: Corn damage rating; for plant injury at 62.5 g/ha: 62.5 g ai/ha, read-out: Corn damage rating (100=total damage to plant; 0=no damage to plant); for plant injury at 62.5 g/ha / plant injury at 250 g/ha: evaluated after 13 days; for plant injury at 250 g/ha: 250 g ai/ha, read-out: damage to plant, Corn (100=total damage to plant; 0=no damage to plant)
# In short: as §1
# [6] = system: redroot pigweed (Amaranthus retroflexus); experiment: Test G Post-Emergence Protocol; conditions: Amaranthus retroflexus, post-emergence, 312 h; for pest or weed control at 15.625 g/ha: 15.625 g ai/ha, evaluated after 13 days (100=total damage to plant; 0=no damage to plant), read-out: Pigweed, Redroot damage rating; for pest or weed control at 62.5 g/ha: 62.5 g ai/ha, read-out: Pigweed, Redroot damage rating (100=total damage to plant; 0=no damage to plant); for pest or weed control at 62.5 g/ha / pest or weed control at 250 g/ha: evaluated after 13 days; for pest or weed control at 250 g/ha: 250 g ai/ha, read-out: damage to plant, Pigweed, Redroot (100=total damage to plant; 0=no damage to plant)
# In short: as §1
# [7] = system: ivy-leaved morning glory (Ipomoea hederacea); experiment: Test G Pre-Emergence Protocol; conditions: Ipomoea, pre-emergence, 312 h, evaluated after 13 days; for pest or weed control at 15.625 g/ha: 15.625 g ai/ha, read-out: Morning-glory, Ivy-leaved damage rating (100=total damage to plant; 0=no damage to plant); for pest or weed control at 62.5 g/ha: 62.5 g ai/ha, 100=total damage to plant, 0=no damage to plant, read-out: plant damage rating, Morningglory, Ivy-leaved; for pest or weed control at 250 g/ha: 250 g ai/ha, read-out: Morningglory, Ivy-leaved damage rating (100=total damage to plant; 0=no damage to plant)
# In short: (§2)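 Scores are visual damage ratings from 0 (no damage) to 100 (total plant kill), taken 13 days after treatment. Compound was sprayed one day post-sowing at 15.625, 62.5 or 250 g/ha in 50:50 acetone/water with 0.5% Tween 20.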
# [8] = system: giant foxtail (Setaria faberi); experiment: Test G Pre-Emergence Protocol; conditions: Setaria faberi, pre-emergence, 312 h, evaluated after 13 days; for pest or weed control at 15.625 g/ha: 15.625 g ai/ha; for pest or weed control at 15.625 g/ha / pest or weed control at 250 g/ha: read-out: Foxtail, Giant damage rating (100=total damage to plant; 0=no damage to plant); for pest or weed control at 62.5 g/ha: 62.5 g ai/ha, 100=total damage to plant, 0=no damage to plant, read-out: plant damage rating, Foxtail, Giant; for pest or weed control at 250 g/ha: 250 g ai/ha
# In short: as §2
# [9] = system: velvetleaf (Abutilon theophrasti); experiment: Test G Pre-Emergence Protocol; conditions: Abutilon theophrasti, pre-emergence, 312 h, evaluated after 13 days; for pest or weed control at 15.625 g/ha: 15.625 g ai/ha; for pest or weed control at 15.625 g/ha / pest or weed control at 250 g/ha: read-out: Velvetleaf damage rating (100=total damage to plant; 0=no damage to plant); for pest or weed control at 62.5 g/ha: 62.5 g ai/ha, 100=total damage to plant, 0=no damage to plant, read-out: plant damage rating, Velvetleaf; for pest or weed control at 250 g/ha: 250 g ai/ha
# In short: as §2
# [10] = system: barnyardgrass (Echinochloa crus-galli); experiment: Test G Pre-Emergence Protocol; conditions: Echinochloa crus-galli, pre-emergence, 312 h, evaluated after 13 days; for pest or weed control at 15.625 g/ha: 15.625 g ai/ha, read-out: Barnyard grass damage rating (100=total damage to plant; 0=no damage to plant); for pest or weed control at 62.5 g/ha: 62.5 g ai/ha, 100=total damage to plant, 0=no damage to plant, read-out: plant damage rating, Barnyardgrass; for pest or weed control at 250 g/ha: 250 g ai/ha, read-out: Barnyardgrass damage rating (100=total damage to plant; 0=no damage to plant)
# In short: as §2
# [11] = system: corn (Zea mays); experiment: Test G Pre-Emergence Protocol; conditions: Zea mays, pre-emergence, 312 h, evaluated after 13 days; for plant injury at 15.625 g/ha: 15.625 g ai/ha; for plant injury at 15.625 g/ha / plant injury at 250 g/ha: read-out: Corn damage rating (100=total damage to plant; 0=no damage to plant); for plant injury at 62.5 g/ha: 62.5 g ai/ha, 100=total damage to plant, 0=no damage to plant, read-out: plant damage rating, Corn; for plant injury at 250 g/ha: 250 g ai/ha
# In short: as §2
# [12] = system: redroot pigweed (Amaranthus retroflexus); experiment: Test G Pre-Emergence Protocol; conditions: Amaranthus retroflexus, pre-emergence, 312 h, evaluated after 13 days; for pest or weed control at 15.625 g/ha: 15.625 g ai/ha; for pest or weed control at 15.625 g/ha / pest or weed control at 250 g/ha: read-out: Pigweed, Redroot damage rating (100=total damage to plant; 0=no damage to plant); for pest or weed control at 62.5 g/ha: 62.5 g ai/ha, 100=total damage to plant, 0=no damage to plant, read-out: plant damage rating, Pigweed, Redroot; for pest or weed control at 250 g/ha: 250 g ai/ha
# In short: as §2
SMILES,pest or weed control at 15.625 g/ha [1] [%],pest or weed control at 62.5 g/ha [1] [%],pest or weed control at 250 g/ha [1] [%],pest or weed control at 15.625 g/ha [2] [%],pest or weed control at 62.5 g/ha [2] [%],pest or weed control at 250 g/ha [2] [%],pest or weed control at 15.625 g/ha [3] [%],pest or weed control at 62.5 g/ha [3] [%],pest or weed control at 250 g/ha [3] [%],pest or weed control at 15.625 g/ha [4] [%],pest or weed control at 62.5 g/ha [4] [%],pest or weed control at 250 g/ha [4] [%],plant injury at 15.625 g/ha [5] [%],plant injury at 62.5 g/ha [5] [%],plant injury at 250 g/ha [5] [%],pest or weed control at 15.625 g/ha [6] [%],pest or weed control at 62.5 g/ha [6] [%],pest or weed control at 250 g/ha [6] [%],pest or weed control at 15.625 g/ha [7] [%],pest or weed control at 62.5 g/ha [7] [%],other results
CN1C[C@@H](c2cncc(Cl)c2)[C@H](C(=O)Nc2cccc(F)c2F)C1=O (racemic) [Compound 1461],0,0,0,20,70,70,0,0,0,0,30,50,10,0,0,0,0,0,0,0,pest or weed control at 250 g/ha [7]: 0%; pest or weed control at 15.625 g/ha [8]: 30%; pest or weed control at 62.5 g/ha [8]: 80%; pest or weed control at 250 g/ha [8]: 90%; pest or weed control at 15.625 g/ha [9]: 0%; pest or weed control at 62.5 g/ha [9]: 0%; pest or weed control at 250 g/ha [9]: 0%; pest or weed control at 15.625 g/ha [10]: 0%; pest or weed control at 62.5 g/ha [10]: 60%; pest or weed control at 250 g/ha [10]: 90%; plant injury at 15.625 g/ha [11]: 0%; plant injury at 62.5 g/ha [11]: 0%; plant injury at 250 g/ha [11]: 0%; pest or weed control at 15.625 g/ha [12]: 0%; pest or weed control at 62.5 g/ha [12]: 0%; pest or weed control at 250 g/ha [12]: 0%
CN1C[C@H](c2cccc3c2OC(F)(F)O3)[C@@H](C(=O)Nc2ccccc2F)C1=O (racemic) [Compound 1465],0,0,20,0,60,70,10,0,10,0,10,20,10,10,10,10,0,0,0,0,pest or weed control at 250 g/ha [7]: 0%; pest or weed control at 15.625 g/ha [8]: 30%; pest or weed control at 62.5 g/ha [8]: 70%; pest or weed control at 250 g/ha [8]: 90%; pest or weed control at 15.625 g/ha [9]: 0%; pest or weed control at 62.5 g/ha [9]: 0%; pest or weed control at 250 g/ha [9]: 0%; pest or weed control at 15.625 g/ha [10]: 0%; pest or weed control at 62.5 g/ha [10]: 20%; pest or weed control at 250 g/ha [10]: 70%; plant injury at 15.625 g/ha [11]: 0%; plant injury at 62.5 g/ha [11]: 0%; plant injury at 250 g/ha [11]: 0%; pest or weed control at 15.625 g/ha [12]: 0%; pest or weed control at 62.5 g/ha [12]: 0%; pest or weed control at 250 g/ha [12]: 0%
CN1C[C@H](c2ccc(C(F)(F)F)cc2)[C@@H](C(=O)Nc2cnccc2O)C1=O (racemic) [Compound 1466],0,10,10,0,10,30,0,0,0,0,0,20,0,10,20,10,30,80,0,0,pest or weed control at 250 g/ha [7]: 0%; pest or weed control at 15.625 g/ha [8]: 0%; pest or weed control at 62.5 g/ha [8]: 0%; pest or weed control at 250 g/ha [8]: 0%; pest or weed control at 15.625 g/ha [9]: 0%; pest or weed control at 62.5 g/ha [9]: 0%; pest or weed control at 250 g/ha [9]: 0%; pest or weed control at 15.625 g/ha [10]: 0%; pest or weed control at 62.5 g/ha [10]: 0%; pest or weed control at 250 g/ha [10]: 0%; plant injury at 15.625 g/ha [11]: 0%; plant injury at 62.5 g/ha [11]: 0%; plant injury at 250 g/ha [11]: 0%; pest or weed control at 15.625 g/ha [12]: 0%; pest or weed control at 62.5 g/ha [12]: 0%; pest or weed control at 250 g/ha [12]: 0%
